Reference: US20210395327A1, “Growth Hormone-Releasing Hormone Antagonists and Uses Thereof” (United States Government As Represented By The Department …, priority 2019, published 2021)
Non-standard residues stand in square brackets, D forms with d. Residues, ends and D or L forms follow the SMILES beside them. *: point of attachment. Phenylacetyl(2,3,4,5,6-F5) = O=C(Cc1c(F)c(F)c(F)c(F)c1F)*; Phe(F5) = N[C@@H](Cc1c(F)c(F)c(F)c(F)c1F)C(=O)O; Phe(4-Cl) = N[C@@H](Cc1ccc(Cl)cc1)C(=O)O; hArg = N=C(N)NCCCC[C@H](N)C(=O)O; 12Ado = NCCCCCCCCCCCC(=O)O; Nle = CCCC[C@H](N)C(=O)O; Abu = CC[C@H](N)C(=O)O

How the values were obtained:
HCC827 lung cancer cells = test: In vitro cell viability, HCC827; type: cell-based, human; conditions: Table 3B; 5 μM for 72 H; MIA-602 = 1
Outline: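 Potency is reported as percent inhibition of viability compared with the reference antagonist MIA602, measured with CellTiter 96 aqueous one solution reagent. Serum-starved cells (0.5% FBS, 24 h) were treated for 72 h, mostly at 5 μM, otherwise 2 μM.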

[1] = system: GH release from rat pituitary cells; test: Inhibition of GH release from rat pituitary cells in vitro (GH ELISA); type: cell-based; conditions: for Relative GH release: analogs 20 nM, then with 1 nM GHRH(1-29)NH2 for 30 minutes, Control = 1.00
Description: In vitro assessment of the antagonistic activity of GHRH analogs. Rats were decapitated and pituitaries were collected in pre-warmed HBSS (Hanks' Balanced Salt Solution). Tissue was then cut into small pieces and digested in HBSS medium containing 3% BSA, 50 μg/ml gentamycin and 0.5% collagenase for 50 minutes at 37° C. Cells were further dispersed by pipetting and passed through a 100 μm cell strainer with the addition of DMEM containing 50 μg/ml gentamycin. 10% horse serum and 2.5% FBS (growth medium). Cells were harvested at 475×g for 2 minutes, resuspended in fresh growth medium and seeded onto poly-D-lysine-coated 24-well plates (7 pituitaries/plate). Cells were left to recover for 4 days. Growth medium was then replaced with serum-free DMEM for 4 hours and GHRH analogs (at concentration of 20 nM) were added in DMEM containing 0.1% BSA for 30 minutes. Cells were replenished with medium containing the same concentration of the analogs and 1 nM GHRH(1-29)NH2 for 30 minutes. Medium from this step was collected, centrifuged at 800 g for 3 minutes and GH concentration was determined by ELISA (ALPCO Diagnostics, Mill Valley, Calif.) according to the manufacturer's instruction.

SMILES: CCCC[C@H](NC(=O)[C@@H](NC(=O)[C@H](CC(=O)O)NC(=O)[C@H](CCC(N)=O)NC(=O)[C@H](CC(C)C)NC(=O)[C@H](CC(C)C)NC(=O)[C@H](CCCCN)NC(=O)[C@H](CCCNC(=N)N)NC(=O)[C@H](C)NC(=O)[C@H](CO)NC(=O)[C@H](CC(C)C)NC(=O)[C@H](CCC(N)=O)NC(=O)[C@H](CC)NC(=O)[C@H](CC(C)C)NC(=O)[C@@H](NC(=O)[C@H](CCCCN)NC(=O)[C@H](CCCNC(=N)N)NC(=O)[C@H](Cc1ccc(OC)cc1)NC(=O)[C@H](CCCCNC(=N)N)NC(=O)[C@H](C)NC(=O)[C@@H](NC(=O)[C@H](Cc1c(F)c(F)c(F)c(F)c1F)NC(=O)[C@@H](NC(=O)[C@H](C)NC(=O)[C@H](CC(=O)O)NC(=O)[C@@H](CCCNC(=N)N)NC(=O)[C@H](Cc1ccc(O)cc1)NC(=O)CCCCCCCCCCCNC(=O)Cc1c(F)c(F)c(F)c(F)c1F)[C@@H](C)CC)[C@@H](C)O)C(C)C)[C@@H](C)CC)C(=O)N[C@H](CCCNC(=N)N)C(=O)N[C@@H](CCCCNC(=N)N)C(=O)NCCCCCCCCCCCC(N)=O [AVR-352, 5FPhAC-Ada-Tyr-DArg-Asp-Ala-Ile-5FPhe-Thr-Ala-Har-Tyr(Me)-Arg-Lys-Val-Leu-Abu-Gln-Leu-Ser-Ala-Arg-Lys-Leu-Leu-Gln-Asp-Ile-Nle-DArg-Har-Ada-NH2] ({Phenylacetyl(2,3,4,5,6-F5)-12Ado}-Y[dR]DAI[Phe(F5)]TA[hArg]Y(Me)RKVL[Abu]QLSARKLLQDI[Nle][dR][hArg][12Ado]-NH2)
- In vitro relative inhibitory potency in comparison to MIA-602, HCC827 (HCC827 lung cancer cells): 2.01
- Relative GH release [1]: 0.72 ± 0.03
- inhibitory effects on the release of GH, compared with MIA-602 (in words) ([1]; rat pituitary cells in vitro, 20 nM): higher inhibitory effects than MIA-602

SMILES: CCCC[C@H](NC(=O)[C@@H](NC(=O)[C@H](CC(=O)O)NC(=O)[C@H](CCC(N)=O)NC(=O)[C@H](CC(C)C)NC(=O)[C@H](CC(C)C)NC(=O)[C@H](CCCCN)NC(=O)[C@H](CCCNC(=N)N)NC(=O)[C@H](C)NC(=O)[C@H](CO)NC(=O)[C@H](CC(C)C)NC(=O)[C@H](CCC(N)=O)NC(=O)[C@H](CC)NC(=O)[C@H](CC(C)C)NC(=O)[C@@H](NC(=O)[C@H](CCCCN)NC(=O)[C@H](CCCNC(=N)N)NC(=O)[C@H](Cc1c(F)c(F)c(F)c(F)c1F)NC(=O)[C@H](CCCCNC(=N)N)NC(=O)[C@H](C)NC(=O)[C@@H](NC(=O)[C@H](Cc1ccc(Cl)cc1)NC(=O)[C@@H](NC(=O)[C@H](C)NC(=O)[C@H](CC(=O)O)NC(=O)[C@@H](CCCNC(=N)N)NC(=O)[C@H](Cc1ccc(O)cc1)NC(=O)CCCCCCCCCCCNC(=O)Cc1c(F)c(F)c(F)c(F)c1F)[C@@H](C)CC)[C@@H](C)O)C(C)C)[C@@H](C)CC)C(=O)N[C@H](CCCNC(=N)N)C(=O)N[C@@H](CCCCNC(=N)N)C(=O)NCCCCCCCCCCCC(=O)NC [AVR-354] ({Phenylacetyl(2,3,4,5,6-F5)-12Ado}-Y[dR]DAI[Phe(4-Cl)]TA[hArg][Phe(F5)]RKVL[Abu]QLSARKLLQDI[Nle][dR][hArg][12Ado]-NHMe)
- In vitro relative inhibitory potency in comparison to MIA-602, HCC827 (HCC827 lung cancer cells): 2.595
- Relative GH release [1]: 0.90 ± 0.02
